In patent publication US10040781B2, “Tank-binding kinase inhibitor compounds” (Gilead Sciences, Inc., priority 2014, dated 2018):

How the values were obtained:
hJAK2 = hJAK2 (Homo sapiens (Human), UniProt O60674); assay: hJAK2 LANCE TR-FRET enzymatic assay; assay type: biochemical; details: read-out: JAK2 IC50
TBK1 = TBK1 (Homo sapiens (Human), UniProt Q9UHD2); assay: TBK1 TR-FRET enzymatic assay;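 note: phosphorylation of a biotinylated Ser/Thr peptide by purified full-length recombinant TBK1, read by TR-FRET after 240 min at 25 °C, IC50 is the geometric mean of at least four runs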
Chain of TBK1 (Q9UHD2 whole entry): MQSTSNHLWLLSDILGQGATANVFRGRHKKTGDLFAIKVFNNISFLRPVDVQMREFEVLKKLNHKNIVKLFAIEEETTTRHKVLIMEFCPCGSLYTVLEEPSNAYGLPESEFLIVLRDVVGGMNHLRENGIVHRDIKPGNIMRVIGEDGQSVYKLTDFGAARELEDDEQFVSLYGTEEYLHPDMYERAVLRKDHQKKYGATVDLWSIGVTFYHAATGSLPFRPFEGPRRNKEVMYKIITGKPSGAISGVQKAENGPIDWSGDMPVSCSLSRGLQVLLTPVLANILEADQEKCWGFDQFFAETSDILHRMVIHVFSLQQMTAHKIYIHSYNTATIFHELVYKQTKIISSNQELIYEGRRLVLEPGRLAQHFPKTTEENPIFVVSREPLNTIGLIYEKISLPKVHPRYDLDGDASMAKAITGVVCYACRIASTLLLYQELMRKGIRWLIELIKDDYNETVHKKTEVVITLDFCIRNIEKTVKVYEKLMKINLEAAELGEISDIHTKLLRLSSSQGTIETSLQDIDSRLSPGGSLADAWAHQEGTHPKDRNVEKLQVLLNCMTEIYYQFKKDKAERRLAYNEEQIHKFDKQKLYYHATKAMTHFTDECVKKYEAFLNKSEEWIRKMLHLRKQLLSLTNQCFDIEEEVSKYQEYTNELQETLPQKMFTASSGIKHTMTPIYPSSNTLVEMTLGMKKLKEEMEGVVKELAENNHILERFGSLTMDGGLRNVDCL

IKKε = IKKε (Homo sapiens (Human), UniProt Q14164); assay: IKKε TR-FRET enzymatic assay; assay type: biochemical; details: read-out: IKKe IC50
Chain of IKKε (Q14164 whole entry): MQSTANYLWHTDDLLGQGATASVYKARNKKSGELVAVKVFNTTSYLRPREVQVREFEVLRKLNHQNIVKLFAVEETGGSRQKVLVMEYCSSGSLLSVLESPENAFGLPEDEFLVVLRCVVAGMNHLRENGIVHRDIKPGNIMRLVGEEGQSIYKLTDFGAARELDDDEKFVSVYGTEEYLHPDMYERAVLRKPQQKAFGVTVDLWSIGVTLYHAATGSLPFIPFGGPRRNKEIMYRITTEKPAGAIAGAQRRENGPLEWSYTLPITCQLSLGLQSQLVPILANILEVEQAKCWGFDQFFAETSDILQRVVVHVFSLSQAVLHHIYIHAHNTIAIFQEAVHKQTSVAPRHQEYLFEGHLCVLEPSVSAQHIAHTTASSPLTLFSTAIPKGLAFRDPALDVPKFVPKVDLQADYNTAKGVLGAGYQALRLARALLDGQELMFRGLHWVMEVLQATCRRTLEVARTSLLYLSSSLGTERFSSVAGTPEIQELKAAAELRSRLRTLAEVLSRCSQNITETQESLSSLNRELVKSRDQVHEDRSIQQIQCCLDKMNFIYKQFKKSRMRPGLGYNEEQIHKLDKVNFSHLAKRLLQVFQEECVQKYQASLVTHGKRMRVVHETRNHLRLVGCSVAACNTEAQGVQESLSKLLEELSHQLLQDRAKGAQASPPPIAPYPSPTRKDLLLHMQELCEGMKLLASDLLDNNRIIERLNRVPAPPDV

Chain of hJAK2 (O60674 whole entry): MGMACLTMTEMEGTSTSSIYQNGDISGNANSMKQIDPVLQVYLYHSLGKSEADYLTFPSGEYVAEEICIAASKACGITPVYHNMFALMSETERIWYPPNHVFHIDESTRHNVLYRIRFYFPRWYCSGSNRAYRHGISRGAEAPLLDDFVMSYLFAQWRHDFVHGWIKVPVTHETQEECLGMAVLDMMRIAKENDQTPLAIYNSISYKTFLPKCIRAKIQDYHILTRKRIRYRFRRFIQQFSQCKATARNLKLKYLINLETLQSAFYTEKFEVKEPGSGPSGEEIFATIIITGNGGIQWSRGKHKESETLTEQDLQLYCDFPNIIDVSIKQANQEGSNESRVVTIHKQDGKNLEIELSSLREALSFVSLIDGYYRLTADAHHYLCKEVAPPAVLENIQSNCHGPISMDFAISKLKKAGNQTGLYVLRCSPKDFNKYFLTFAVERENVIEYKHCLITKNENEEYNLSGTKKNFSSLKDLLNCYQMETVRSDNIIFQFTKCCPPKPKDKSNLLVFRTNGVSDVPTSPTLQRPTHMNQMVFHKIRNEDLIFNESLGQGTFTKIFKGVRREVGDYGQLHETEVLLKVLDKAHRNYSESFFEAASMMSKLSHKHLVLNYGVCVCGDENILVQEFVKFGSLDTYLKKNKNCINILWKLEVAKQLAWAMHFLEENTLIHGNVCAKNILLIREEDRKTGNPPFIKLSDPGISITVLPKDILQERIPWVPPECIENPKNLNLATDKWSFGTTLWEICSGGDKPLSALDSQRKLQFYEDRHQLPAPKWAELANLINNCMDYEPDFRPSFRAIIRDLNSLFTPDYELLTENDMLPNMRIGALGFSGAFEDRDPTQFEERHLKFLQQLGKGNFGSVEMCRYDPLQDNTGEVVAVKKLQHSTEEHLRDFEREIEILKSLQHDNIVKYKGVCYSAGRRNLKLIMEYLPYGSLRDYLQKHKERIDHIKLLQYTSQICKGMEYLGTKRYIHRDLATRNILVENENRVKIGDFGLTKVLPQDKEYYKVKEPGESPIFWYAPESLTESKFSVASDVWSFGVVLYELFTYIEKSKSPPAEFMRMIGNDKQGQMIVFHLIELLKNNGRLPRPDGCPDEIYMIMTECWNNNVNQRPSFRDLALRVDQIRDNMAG

IC50 (hJAK2) | IC50 (TBK1) | IC50 (IKKε) | SMILES
560 nM | 21 nM | 91 nM | N#Cc1cc(-c2ncnc(Nc3ccc(N4CCN(C5COC5)CC4)cc3)n2)ccc1O[C@@H]1CCN(C(=O)C(F)F)C1 [Example 96, (R)-2-((1-(2,2-difluoroacetyl)pyrrolidin-3-yl)oxy)-5-(4-((4-(4-(oxetan-3-yl)piperazin-1-yl)phenyl)amino)-1,3,5-triazin-2-yl)benzonitrile]
241 nM | 11 nM | 22 nM | N#Cc1cc(-c2ncnc(Nc3ccc(N4CCN(C5COC5)CC4)cc3)n2)ccc1OC1CCCN(C(=O)CO)CC1 (stereo not drawn) [Example 97, 2-((1-(2-hydroxyacetyl)azepan-4-yl)oxy)-5-(4-((4-(4-(oxetan-3-yl)piperazin-1-yl)phenyl)amino)-1,3,5-triazin-2-yl)benzonitrile]
119 nM | 5 nM | 14 nM | N#Cc1cc(-c2ncnc(Nc3ccc(N4CCN(C5COC5)CC4)cc3)n2)ccc1OC1CN(C(=O)CO)CC1(F)F (stereo not drawn) [Example 98, 2-((4,4-difluoro-1-(2-hydroxyacetyl)pyrrolidin-3-yl)oxy)-5-(4-((4-(4-(oxetan-3-yl)piperazin-1-yl)phenyl)amino)-1,3,5-triazin-2-yl)benzonitrile]
440 nM | 77 nM | 193 nM | C[C@@H]1C[C@@H](Oc2ccc(-c3ncnc(Nc4ccc(N5CCN(C6COC6)CC5)cc4)n3)cc2C#N)CN1C(=O)CO [Example 99, 2-(((3R,5R)-1-(2-hydroxyacetyl)-5-methylpyrrolidin-3-yl)oxy)-5-(4-((4-(4-(oxetan-3-yl)piperazin-1-yl)phenyl)amino)-1,3,5-triazin-2-yl)benzonitrile]
525 nM | 121 nM | 249 nM | C[C@H]1C[C@@H](Oc2ccc(-c3ncnc(Nc4ccc(N5CCN(C6COC6)CC5)cc4)n3)cc2C#N)CN1C(=O)CO [Example 100, 2-(((3R,5S)-1-(2-hydroxyacetyl)-5-methylpyrrolidin-3-yl)oxy)-5-(4-((4-(4-(oxetan-3-yl)piperazin-1-yl)phenyl)amino)-1,3,5-triazin-2-yl)benzonitrile]
380 nM | 11 nM | 24 nM | N#Cc1cc(-c2ncnc(Nc3ccc(N4CCN(C5COC5)CC4)cc3)n2)ccc1O[C@H]1C[C@@H]2C[C@H]1N(C(=O)CO)C2 [Example 102, 2-(((1R,4S,6S)-2-(2-hydroxyacetyl)-2-azabicyclo[2.2.1]heptan-6-yl)oxy)-5-(4-((4-(4-(oxetan-3-yl)piperazin-1-yl)phenyl)amino)-1,3,5-triazin-2-yl)benzonitrile]
260 nM | 6 nM | 10 nM | N#Cc1cc(-c2ncnc(Nc3ccc(N4CCOCC4)cc3)n2)ccc1O[C@@H]1CCN(C(=O)CO)C1 [Example 103, (R)-2-((1-(2-hydroxyacetyl)pyrrolidin-3-yl)oxy)-5-(4-((4-morpholinophenyl)amino)-1,3,5-triazin-2-yl)benzonitrile]
328 nM | 42 nM | 215 nM | COc1ccc(-c2ncnc(Nc3ccc(N4CCN(C5COC5)CC4)cc3)n2)cc1C#N [Example 104, 2-methoxy-5-(4-((4-(4-(oxetan-3-yl)piperazin-1-yl)phenyl)amino)-1,3,5-triazin-2-yl)benzonitrile]
212 nM | 79 nM | > 1000 nM | COc1cc(C#N)cc(-c2ncnc(Nc3ccc(N4CCN(C5COC5)CC4)cc3)n2)c1 [Example 105, 3-methoxy-5-(4-((4-(4-(oxetan-3-yl)piperazin-1-yl)phenyl)amino)-1,3,5-triazin-2-yl)benzonitrile]
> 1000 nM | 5 nM | 4 nM | N#Cc1cc(-c2ncnc(Nc3ccc(Cn4ccnc4)cc3)n2)ccc1OC1CCOCC1 [Example 106, 5-(4-((4-((1H-imidazol-1-yl)methyl)phenyl)amino)-1,3,5-triazin-2-yl)-2-((tetrahydro-2H-pyran-4-yl)oxy)benzonitrile]
> 1000 nM | 3 nM | 6 nM | CC1(O)CCN(c2ccc(Nc3ncnc(-c4ccc(OC5CCOCC5)c(C#N)c4)n3)cc2)C1 (stereo not drawn) [Example 108, 5-(4-((4-(3-hydroxy-3-methylpyrrolidin-1-yl)phenyl)amino)-1,3,5-triazin-2-yl)-2-((tetrahydro-2H-pyran-4-yl)oxy)benzonitrile]
> 1000 nM | 76 nM | 161 nM | Cc1cc(N2CCOCC2)ccc1Nc1ncnc(-c2ccc(OC3CCOCC3)c(C#N)c2)n1 [Example 109, 5-(4-((2-methyl-4-morpholinophenyl)amino)-1,3,5-triazin-2-yl)-2-((tetrahydro-2H-pyran-4-yl)oxy)benzonitrile]
740 nM | 243 nM | 330 nM | N#Cc1cc(-c2ncnc(Nc3ccc(N4CCN(C5COC5)CC4)cc3)n2)ccc1O[C@H]1CCN(C2CCOC2)C[C@H]1F (stereo partly drawn) [Example 110, 2-(((3R,4S)-3-fluoro-1-(tetrahydrofuran-3-yl)piperidin-4-yl)oxy)-5-(4-((4-(4-(oxetan-3-yl)piperazin-1-yl)phenyl)amino)-1,3,5-triazin-2-yl)benzonitrile]
602 nM | 146 nM | 328 nM | N#Cc1cc(-c2ncnc(Nc3ccc(N4CCN(C5COC5)CC4)cc3)n2)ccc1O[C@H]1CCN(C2COC2)C[C@H]1F [Example 111, 2-(((3R,4S)-3-fluoro-1-(oxetan-3-yl)piperidin-4-yl)oxy)-5-(4-((4-(4-(oxetan-3-yl)piperazin-1-yl)phenyl)amino)-1,3,5-triazin-2-yl)benzonitrile]
375 nM | 4 nM | 4 nM | N#Cc1cc(-c2ncnc(Nc3ccc(N4CCN(C5COC5)CC4)cc3)n2)ccc1OC1CCN(C(=O)[C@@H]2CCC(=O)N2)C[C@H]1F (stereo partly drawn) [Example 112, 2-(((3R)-3-fluoro-1-((S)-5-oxopyrrolidine-2-carbonyl)piperidin-4-yl)oxy)-5-(4-((4-(4-(oxetan-3-yl)piperazin-1-yl)phenyl)amino)-1,3,5-triazin-2-yl)benzonitrile]
292 nM | 64 nM | 100 nM | N#Cc1cc(-c2ncnc(Nc3ccc(N4CCN(C5COC5)CC4)cc3)n2)ccc1OC1CCN(C(=O)[C@H]2CCC(=O)N2)C[C@H]1F (stereo partly drawn) [Example 113, 2-(((3R)-3-fluoro-1-((R)-5-oxopyrrolidine-2-carbonyl)piperidin-4-yl)oxy)-5-(4-((4-(4-(oxetan-3-yl)piperazin-1-yl)phenyl)amino)-1,3,5-triazin-2-yl)benzonitrile]
175 nM | 20 nM | 56 nM | N#Cc1cc(-c2ncnc(Nc3ccc(N4CCN(C5COC5)CC4)cc3)n2)ccc1O[C@H]1CCC(=O)NC1 [Example 114, (S)-5-(4-((4-(4-(oxetan-3-yl)piperazin-1-yl)phenyl)amino)-1,3,5-triazin-2-yl)-2-((6-oxopiperidin-3-yl)oxy)benzonitrile]
≥ 1000 nM | 12 nM | 21 nM | C[C@H]1C[C@H](Oc2ccc(-c3ncnc(Nc4ccc(N5CCN(C6COC6)CC5)cc4)n3)cc2C#N)[C@H](F)CN1C(=O)CO [Example 115, 2-(((2S,4S,5R)-5-fluoro-1-(2-hydroxyacetyl)-2-methylpiperidin-4-yl)oxy)-5-(4-((4-(4-(oxetan-3-yl)piperazin-1-yl)phenyl)amino)-1,3,5-triazin-2-yl)benzonitrile]
146 nM | 2 nM | 1 nM | N#Cc1cc(-c2ncnc(Nc3ccc(N4CCN(C5COC5)CC4)cc3)n2)ccc1O[C@H]1CCN(C(=O)[C@@H]2CCC(=O)N2)CC1(F)F [Example 116, 2-(((S)-3,3-difluoro-1-((S)-5-oxopyrrolidine-2-carbonyl)piperidin-4-yl)oxy)-5-(4-((4-(4-(oxetan-3-yl)piperazin-1-yl)phenyl)amino)-1,3,5-triazin-2-yl)benzonitrile]
342 nM | 3 nM | 4 nM | N#Cc1cc(-c2ncnc(Nc3ccc(N4CCN(C5COC5)CC4)cc3)n2)ccc1O[C@H]1CCN(C(=O)[C@@H]2CCCC(=O)N2)C[C@H]1F [Example 117, 2-(((3R,4S)-3-fluoro-1-((S)-6-oxopiperidine-2-carbonyl)piperidin-4-yl)oxy)-5-(4-((4-(4-(oxetan-3-yl)piperazin-1-yl)phenyl)amino)-1,3,5-triazin-2-yl)benzonitrile]
284 nM | 7 nM | 11 nM | N#Cc1cc(-c2ncnc(Nc3ccc(N4CCN(C5COC5)CC4)cc3)n2)ccc1O[C@H]1CCN(C(=O)C2CCS(=O)(=O)N2)C[C@H]1F (stereo partly drawn) [Example 118, 2-(((3R,4S)-1-(1,1-dioxidoisothiazolidine-3-carbonyl)-3-fluoropiperidin-4-yl)oxy)-5-(4-((4-(4-(oxetan-3-yl)piperazin-1-yl)phenyl)amino)-1,3,5-triazin-2-yl)benzonitrile]
338 nM | 6 nM | 2 nM | CN1CCN(C(=O)c2ccc(Nc3ncnc(-c4ccc(O[C@H]5CCN(C(=O)CO)C[C@H]5F)c(C#N)c4)n3)cc2)CC1 [Example 119, 2-(((3R,4S)-3-fluoro-1-(2-hydroxyacetyl)piperidin-4-yl)oxy)-5-(4-((4-(4-methylpiperazine-1-carbonyl)phenyl)amino)-1,3,5-triazin-2-yl)benzonitrile]
674 nM | 4 nM | 2 nM | C[C@H](O)C(=O)N1CC[C@H](Oc2ccc(-c3ncnc(Nc4ccc(C(=O)N5CCN(C)CC5)cc4)n3)cc2C#N)[C@H](F)C1 [Example 120, 2-(((3R,4S)-3-fluoro-1-((S)-2-hydroxypropanoyl)piperidin-4-yl)oxy)-5-(4-((4-(4-methylpiperazine-1-carbonyl)phenyl)amino)-1,3,5-triazin-2-yl)benzonitrile]

SMILES | IC50 (hJAK2) | IC50 (TBK1) | IC50 (IKKε)
N#Cc1cc(-c2ncnc(Nc3ccc(N4CCN(C5COC5)CC4)cc3)n2)ccc1O[C@@H]1CCN(C=O)C1 [Example 95, (R)-2-((1-formylpyrrolidin-3-yl)oxy)-5-(4-((4-(4-(oxetan-3-yl)piperazin-1-yl)phenyl)amino)-1,3,5-triazin-2-yl)benzonitrile] | 377 nM | 7 nM | 21 nM
